# Laboratory results from patent US20230149540A1, “VACCINE PLATFORM FOR THE INDUCTION OF SYSTEMIC IMMUNE RESPONSES” (The Board of Trustees of the Leland Stanford Junior …, priority 2020, published 2023).
# Assays:
# human MAIT cells = experiment: In vitro MAIT cell activation, IFN-γ secretion (FIG. 7); type: cell-based; details: stimulated for 18 h
# Experimental: (§1) FIG. 7. In vitro exposure of human or rhesus macaque MAIT cells to their cognate antigen (5-OP-RU) (a highly unstable molecule) or microspheres loaded with 5-OP-RU-loaded MR-1 monomer induced IFN-γ secretion. Representative pseudocolor plots shown are gated on live CD8^+ T cells. Human and rhesus macaque cells were stimulated for 18 h.
# (§2) Activation of innate-like T cells and effector memory T cells can be achieved by presentation of their antigen in the context of the appropriate MHC molecule. Streptavidin-coated microspheres were linked to biotinylated monomers of CD1d (type I NKT cells) or MR1 (MAIT cells) to test for induction of activation of these innate-like T cells. […] We then performed an experiment in which mice were intravenously administrated CABs loaded with αGC (positive control), which would induce the expansion of NKT cells, CD1d-αGC-coated microspheres (test group), or were left untreated (negative control) (FIG. 8).
# [1] = test system: rhesus macaque MAIT cells; experiment: as above; type: cell-based; details: stimulated for 18 h
# Experimental: as §1, §2
smiles,measurement,setting,value
CC(=O)C=Nc1c(NC[C@H](O)[C@H](O)[C@H](O)CO)[nH]c(=O)[nH]c1=O [5-OP-RU],secretion of IFN-γ by MAIT cells,human MAIT cells,induce secretion of IFN-γ to a similar extent
same,secretion of IFN-γ by MAIT cells,[1],induce secretion of IFN-γ to a similar extent
